#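 GI50: concentration for 50% inhibition of growth. At the TGI there is no net growth.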
# Legend:
# Assay in all cases: NCI tumour cell line growth inhibition, 384-well format
# SW-620 colon = test system: SW-620 colon
# MDA-MB-435 melanoma = test system: MDA-MB-435 melanoma
# RXF 393 renal = test system: RXF 393 renal
# MDA-MB-231 breast = test system: MDA-MB-231 breast
# U251 glioblastoma = test system: U251 glioblastoma
# T-47D breast = test system: T-47D breast
# HT29 colon = test system: HT29 colon
# 786-0 renal = test system: 786-0 renal
# OVCAR-4 ovarian = test system: OVCAR-4 ovarian
# NCI-H23 lung = test system: NCI-H23 lung
# SN12C renal = test system: SN12C renal
# NCI-H460 NSCLC = test system: NCI-H460 NSCLC
# OVCAR-5 ovarian = test system: OVCAR-5 ovarian
# HCT-15 colon = test system: HCT-15 colon
# CAKI-1 renal = test system: CAKI-1 renal
# HCC-2998 colon = test system: HCC-2998 colon
# SF-539 CNS = test system: SF-539 CNS
# HOP-62 NSCLC = test system: HOP-62 NSCLC
# SK-MEL-5 melanoma = test system: SK-MEL-5 melanoma
# SNB-75 CNS = test system: SNB-75 CNS
# SK-OV-3 ovarian = test system: SK-OV-3 ovarian
# HOP-92 NSCLC = test system: HOP-92 NSCLC
# HL-60(TB) leukemia = test system: HL-60(TB) leukemia
# SF-295 CNS = test system: SF-295 CNS
# ACHN renal = test system: ACHN renal
# MDA-MB-468 breast = test system: MDA-MB-468 breast
# EKVX NSCLC = test system: EKVX NSCLC
# PC-3 prostate = test system: PC-3 prostate
# OVCAR-3 ovarian = test system: OVCAR-3 ovarian
# SNB-19 CNS = test system: SNB-19 CNS
# UO-31 renal = test system: UO-31 renal
# DU-145 prostate = test system: DU-145 prostate
# HCT-116 colon = test system: HCT-116 colon
# SK-MEL-28 melanoma = test system: SK-MEL-28 melanoma
# MCF7 breast = test system: MCF7 breast
# A549 NSCLC = test system: A549 NSCLC
# MALME-3M melanoma = test system: MALME-3M melanoma
# SF-268 CNS = test system: SF-268 CNS
# BT-549 breast = test system: BT-549 breast
# NCI-H522 lung = test system: NCI-H522 lung
# RPMI-8226 leukemia = test system: RPMI-8226 leukemia
# NCI-H322M lung = test system: NCI-H322M lung
# UACC-257 melanoma = test system: UACC-257 melanoma
# NCI/ADR-RES ovarian = test system: NCI/ADR-RES ovarian
# IGROV1 ovarian = test system: IGROV1 ovarian
# KM12 colon = test system: KM12 colon
# NCI-H226 lung = test system: NCI-H226 lung
# TK-10 renal = test system: TK-10 renal
# OVCAR-8 ovarian = test system: OVCAR-8 ovarian
# COLO 205 colon = test system: COLO 205 colon
# HS 578T breast = test system: HS 578T breast
# UACC-62 melanoma = test system: UACC-62 melanoma
# M14 melanoma = test system: M14 melanoma
# LOX IMVI melanoma = test system: LOX IMVI melanoma
# MOLT-4 leukemia = test system: MOLT-4 leukemia
# A498 renal = test system: A498 renal
# K-562 leukemia = test system: K-562 leukemia
# CCRF-CEM leukemia = test system: CCRF-CEM leukemia
smiles,measurement,setting,value
O=C(Nc1cc(Oc2cc(F)c(NC(=O)C3(C(=O)Nc4ccc(F)cc4)CC3)cc2F)ccn1)C1CC1,GI50,SW-620 colon,2.38 µM
same,TGI,SW-620 colon,6.96 µM
same,GI50,MDA-MB-435 melanoma,1.2 µM
same,TGI,MDA-MB-435 melanoma,2.82 µM
same,GI50,RXF 393 renal,1.2 µM
same,TGI,RXF 393 renal,2.51 µM
same,GI50,MDA-MB-231 breast,0.472 µM
same,TGI,MDA-MB-231 breast,91.7 µM
same,GI50,U251 glioblastoma,2.5 µM
same,TGI,U251 glioblastoma,6.32 µM
same,GI50,T-47D breast,1.38 µM
same,TGI,T-47D breast,5.17 µM
same,GI50,HT29 colon,0.659 µM
same,TGI,HT29 colon,39 µM
same,GI50,786-0 renal,2 µM
same,TGI,786-0 renal,8.41 µM
same,GI50,OVCAR-4 ovarian,3.98 µM
same,TGI,OVCAR-4 ovarian,8.26 µM
same,GI50,NCI-H23 lung,0.173 µM
same,TGI,NCI-H23 lung,0.578 µM
same,GI50,SN12C renal,1.65 µM
same,TGI,SN12C renal,4.5 µM
same,GI50,NCI-H460 NSCLC,1.98 µM
same,TGI,NCI-H460 NSCLC,4.31 µM
same,GI50,OVCAR-5 ovarian,2.35 µM
same,TGI,OVCAR-5 ovarian,14.8 µM
same,GI50,HCT-15 colon,1.93 µM
same,TGI,HCT-15 colon,5.65 µM
same,GI50,CAKI-1 renal,1.51 µM
same,TGI,CAKI-1 renal,3.28 µM
same,GI50,HCC-2998 colon,0.647 µM
same,TGI,HCC-2998 colon,4.23 µM
same,GI50,SF-539 CNS,1.46 µM
same,TGI,SF-539 CNS,2.93 µM
same,GI50,HOP-62 NSCLC,0.306 µM
same,TGI,HOP-62 NSCLC,1.62 µM
same,GI50,SK-MEL-5 melanoma,0.512 µM
same,TGI,SK-MEL-5 melanoma,1.94 µM
same,GI50,SNB-75 CNS,1.62 µM
same,TGI,SNB-75 CNS,3.03 µM
same,GI50,SK-OV-3 ovarian,3.12 µM
same,TGI,SK-OV-3 ovarian,9.2 µM
same,GI50,HOP-92 NSCLC,2.34 µM
same,TGI,HOP-92 NSCLC,> 100 µM
same,GI50,HL-60(TB) leukemia,1.15 µM
same,TGI,HL-60(TB) leukemia,2.38 µM
same,GI50,SF-295 CNS,1.2 µM
same,TGI,SF-295 CNS,5.14 µM
same,GI50,ACHN renal,1.66 µM
same,TGI,ACHN renal,7.31 µM
same,GI50,MDA-MB-468 breast,1.98 µM
same,TGI,MDA-MB-468 breast,3.5 µM
same,GI50,EKVX NSCLC,1.73 µM
same,TGI,EKVX NSCLC,4.38 µM
same,GI50,PC-3 prostate,3.3 µM
same,TGI,PC-3 prostate,8.13 µM
same,GI50,OVCAR-3 ovarian,2.35 µM
same,TGI,OVCAR-3 ovarian,6 µM
same,GI50,SNB-19 CNS,2.75 µM
same,TGI,SNB-19 CNS,11.4 µM
same,GI50,UO-31 renal,2.07 µM
same,TGI,UO-31 renal,7.07 µM
same,GI50,DU-145 prostate,1.07 µM
same,TGI,DU-145 prostate,61.4 µM
same,GI50,HCT-116 colon,0.801 µM
same,TGI,HCT-116 colon,54.9 µM
same,GI50,SK-MEL-28 melanoma,1.4 µM
same,TGI,SK-MEL-28 melanoma,2.78 µM
same,GI50,MCF7 breast,0.376 µM
same,TGI,MCF7 breast,2.09 µM
same,GI50,A549 NSCLC,1.7 µM
same,TGI,A549 NSCLC,8.94 µM
same,GI50,MALME-3M melanoma,0.249 µM
same,TGI,MALME-3M melanoma,1.1 µM
same,GI50,SF-268 CNS,0.364 µM
same,TGI,SF-268 CNS,0.962 µM
same,GI50,BT-549 breast,2.37 µM
same,TGI,BT-549 breast,4.71 µM
same,GI50,NCI-H522 lung,2.06 µM
same,TGI,NCI-H522 lung,4.17 µM
same,GI50,RPMI-8226 leukemia,1.93 µM
same,TGI,RPMI-8226 leukemia,3.37 µM
same,GI50,NCI-H322M lung,1.6 µM
same,TGI,NCI-H322M lung,6.88 µM
same,GI50,UACC-257 melanoma,1.11 µM
same,TGI,UACC-257 melanoma,2.68 µM
same,GI50,NCI/ADR-RES ovarian,1.78 µM
same,TGI,NCI/ADR-RES ovarian,6.99 µM
same,GI50,IGROV1 ovarian,1.26 µM
same,TGI,IGROV1 ovarian,6.93 µM
same,TGI,KM12 colon,2.72 µM
same,GI50,NCI-H226 lung,2.21 µM
same,TGI,NCI-H226 lung,7.21 µM
same,GI50,TK-10 renal,3.13 µM
same,TGI,TK-10 renal,20.8 µM
same,GI50,OVCAR-8 ovarian,1.95 µM
same,TGI,OVCAR-8 ovarian,9.88 µM
same,GI50,COLO 205 colon,0.66 µM
same,TGI,COLO 205 colon,2.87 µM
same,GI50,HS 578T breast,1.35 µM
same,TGI,HS 578T breast,2.71 µM
same,GI50,UACC-62 melanoma,0.394 µM
same,TGI,UACC-62 melanoma,1.6 µM
same,GI50,M14 melanoma,0.349 µM
same,TGI,M14 melanoma,1.43 µM
same,GI50,LOX IMVI melanoma,1.25 µM
same,TGI,LOX IMVI melanoma,2.71 µM
same,GI50,MOLT-4 leukemia,0.624 µM
same,TGI,MOLT-4 leukemia,1.92 µM
same,GI50,A498 renal,3.02 µM
same,TGI,A498 renal,8.19 µM
same,GI50,K-562 leukemia,0.32 µM
same,TGI,K-562 leukemia,13.9 µM
same,GI50,CCRF-CEM leukemia,0.445 µM
same,TGI,CCRF-CEM leukemia,1.47 µM

# Source: PubChem BioAssay (NCI)
